Data on 27 compounds can be found in patent publication US9884818B2, “Sulphamoylpyrrolamide derivatives and the use thereof as medicaments for the treatment of hepatitis B” (Janssen Sciences Ireland UC, priority 2013, dated 2018).

Data set [1] can be described thus: Cytotoxicity in HepG2 cells, Resazurin viability assay. The note with it: human, HepG2 cells, HepG2 4 days CC50 (μM), incubated for 4 days, Resazurin assay. For orientation: Alamar Blue is a resazurin reagent that responds to reducing activity.
The test system of data set [2] is HBV. Put plainly: Anti-HBV activity, HepG2.2.15 stable transfected cell line, HBV DNA from secreted virions by realtime PCR. It counts as cell-based. As to conditions: Hepatitis B virus, HepG2.2.15, 144 h, HepG2.2.15 cells, 6 days of treatment, HBV DNA from secreted virions; read-out: HepG2 2.15 EC50.
In data set [3] the test system is HBV. Put plainly: Anti-HBV activity, HepG2.117 inducibly HBV producing cell line (Tet-off), intracellular HBV DNA by realtime PCR. It counts as cell-based. As to conditions: Hepatitis B virus, HepG2.117, 72 h, HepG2.117 cells, 3 days of treatment, intracellular HBV DNA; read-out: HepG2 117 EC50.

As to `Cn1cc(S(=O)(=O)NC2(C)COC2)c(F)c1C(=O)Nc1ccc(F)c(F)c1` [Compound 74, N-(3,4-difluorophenyl)-3-fluoro-1-methyl-4-[(3-methyloxetan-3-yl)-sulfamoyl]pyrrole-2-carboxamide], the CC50 at 4 days in data set [1] was greater than 25 µM. In addition, the EC50 in the data set on HBV [2] and in the data set on HBV [3] was 20 nM in each case.

As to `Cn1cc(S(=O)(=O)NC2(C)COC2)cc1C(=O)Nc1cc(Cl)c(F)c(Cl)c1` [Compound 75, N-(3,5-Dichloro-4-fluorophenyl)-1-methyl-4-[(3-methyloxetan-3-yl)sulfamoyl]-1H-pyrrole-2-carboxamide], in data set [1], the CC50 at 4 days is greater than 25 µM. Moreover, the EC50 in the data set on HBV [2] and in the data set on HBV [3] was 180 nM throughout.

In the case of `Cn1cc(S(=O)(=O)NC(C)(C)C)cc1C(=O)Nc1cc(Cl)c(F)c(Cl)c1` [Compound 76, 4-(tert-Butylsulfamoyl)-N-(3,5-dichloro-4-fluorophenyl)-1-methyl-1H-pyrrole-2-carboxamide], the CC50 at 4 days in data set [1] was greater than 25 µM. Besides, the EC50 in the data set on HBV [2] amounted to 180 nM; with HBV [3], 130 nM.

The compound `Cc1cc(NC(=O)c2cc(S(=O)(=O)NC3(C)COC3)cn2C)ccc1Cl` [Compound 77, N-(4-Chloro-3-methylphenyl)-1-methyl-4-[(3-methyloxetan-3-yl)sulfamoyl]-1H-pyrrole-2-carboxamide] showed a CC50 at 4 days in data set [1] greater than 25 µM. For the same compound, the half-maximal effective concentration (EC50) in the data set on HBV [2] amounted to 70 nM; in the data set on HBV [3] it was 180 nM.

`Cn1cc(S(=O)(=O)NC2(C)COC2)cc1C(=O)Nc1ccc(F)c(Cl)c1` [Compound 78, N-(3-Chloro-4-fluorophenyl)-1-methyl-4-[(3-methyloxetan-3-yl)sulfamoyl]-1H-pyrrole-2-carboxamide]: the half-maximal cytotoxic concentration (CC50) at 4 days in data set [1] is greater than 25 µM. Besides, the concentration giving a half-maximal response (EC50) amounted to 20 nM in the data set on HBV [2] and 30 nM with HBV [3].

Consider `Cc1cc(NC(=O)c2cc(S(=O)(=O)NC3(C)COC3)cn2C)cc(C(F)(F)F)c1F` [Compound 79, N-[4-Fluoro-3-methyl-5-(trifluoromethyl)phenyl]-1-methyl-4-[(3-methyloxetan-3-yl)sulfamoyl]-1H-pyrrole-2-carboxamide], for which, in data set [1], the half-maximal cytotoxic concentration (CC50) at 4 days is greater than 25 µM. Besides, the values for the half-maximal effective concentration (EC50) in the data set with HBV [2] and with HBV [3] were 530 nM and 460 nM, respectively.

Turning to `Cc1cc(NC(=O)c2cc(S(=O)(=O)NC3(C)COC3)cn2C)cc(C)c1F` [Compound 80, N-(4-Fluoro-3,5-dimethylphenyl)-1-methyl-4-[(3-methyloxetan-3-yl)sulfamoyl]-1H-pyrrole-2-carboxamide], the CC50 at 4 days in data set [1] is greater than 25 µM. Moreover, the concentration for a half-maximal effect (EC50) is 40 nM in the data set with HBV [2] and 90 nM with HBV [3].

Regarding `Cn1cc(S(=O)(=O)NC2(C)COC2)cc1C(=O)Nc1ccc(F)c(Br)c1` [Compound 81], the CC50 at 4 days in data set [1] is greater than 25 µM. In addition, the values for the EC50 in the data set on HBV [2] and in the data set with HBV [3] were 10 nM and 50 nM, respectively.

In data set [1], `Cc1cc(NC(=O)c2cc(S(=O)(=O)NC3(C)COC3)cn2C)cc(C(F)(F)F)c1` [Compound 82, 1-Methyl-4-[(3-methyloxetan-3-yl)sulfamoyl]-N-[3-methyl-5-(trifluoro-methyl)phenyl]-1H-pyrrole-2-carboxamide] returned a CC50 at 4 days greater than 25 µM. The concentration for a half-maximal effect (EC50) in the data set on HBV [2] is 170 nM; in the data set with HBV [3], 490 nM.

The compound `Cc1cc(NC(=O)c2cc(S(=O)(=O)NC3(C)COC3)cn2C)ccc1C#N` [Compound 83] yielded a CC50 at 4 days in data set [1] greater than 25 µM. For the same compound, the concentration giving a half-maximal response (EC50) in the data set with HBV [2] was greater than 1000 nM; with HBV [3] it was 1350 nM.

In the case of `Cn1cc(S(=O)(=O)NC2(C)COC2)cc1C(=O)Nc1ccc(Cl)c(F)c1` [Compound 84], the CC50 at 4 days in data set [1] was greater than 25 µM. Moreover, the EC50 amounted to 460 nM in the data set with HBV [2] and 610 nM in the data set on HBV [3].

Turning to `Cc1c(F)ccc(NC(=O)c2cc(S(=O)(=O)NC3(C)COC3)cn2C)c1F` [Compound 85, N-(2,4-Difluoro-3-methylphenyl)-1-methyl-4-[(3-methyloxetan-3-yl)sulfamoyl]-1H-pyrrole-2-carboxamide], in data set [1], the CC50 at 4 days was greater than 25 µM. In addition, the EC50 came out at 30 nM in the data set with HBV [2] and 50 nM in the data set on HBV [3].

Take `Cn1cc(S(=O)(=O)NC2(C)COC2)cc1C(=O)Nc1ccc(F)c(OC(F)(F)F)c1` [Compound 86, N-[4-Fluoro-3-(trifluoromethoxy)phenyl]-1-methyl-4-[(3-methyloxetan-3-yl)sulfamoyl]-1H-pyrrole-2-carboxamide]: in data set [1], the half-maximal cytotoxic concentration (CC50) at 4 days is greater than 25 µM. Besides, the EC50 in the data set with HBV [2] was found to be 370 nM; in the data set with HBV [3] it was 350 nM.

`Cn1cc(S(=O)(=O)NC2(C)COC2)cc1C(=O)Nc1cc(Cl)cc(C#N)c1` [Compound 87, N-(3-Chloro-5-cyanophenyl)-1-methyl-4-[(3-methyloxetan-3-yl)sulfamoyl]-1H-pyrrole-2-carboxamide] had a 50% cytotoxic concentration (CC50) at 4 days in data set [1] greater than 25 µM. Besides, the 50% effective concentration (EC50) was 960 nM in the data set on HBV [2] and greater than 1000 nM in the data set on HBV [3].

`Cc1cc(NC(=O)c2c(C)c(S(=O)(=O)NC3(C)COC3)c(C)n2C)ccc1F` [Compound 88, N-(4-Fluoro-3-methylphenyl)-1,3,5-trimethyl-4-[(3-methyloxetan-3-yl)sulfamoyl]-1H-pyrrole-2-carboxamide] displayed a CC50 at 4 days in data set [1] greater than 25 µM. Also, the EC50 in the data set on HBV [2] was found to be 20 nM; in the data set with HBV [3], 30 nM.

`Cc1cc(NC(=O)c2cc(S(=O)(=O)NC3(C)COC3)c(C)n2C)ccc1F` [Compound 89, N-(4-Fluoro-3-methylphenyl)-1,5-dimethyl-4-[(3-methyloxetan-3-yl)sulfamoyl]-1H-pyrrole-2-carboxamide] gave a CC50 at 4 days in data set [1] greater than 25 µM. Further, the half-maximal effective concentration (EC50) in the data set on HBV [2] and in the data set on HBV [3] was 20 nM in each case.

As to `Cc1cc(NC(=O)c2c(C)c(S(=O)(=O)NC3(C)COC3)cn2C)ccc1F` [Compound 90, N-(4-Fluoro-3-methylphenyl)-1,3-dimethyl-4-[(3-methyloxetan-3-yl)sulfamoyl]-1H-pyrrole-2-carboxamide], in data set [1], the CC50 at 4 days was greater than 25 µM. For the same compound, the concentration for a half-maximal effect (EC50) in the data set with HBV [2] was 50 nM; in the data set on HBV [3], 30 nM.

Compound `Cn1cc(S(=O)(=O)NC2(C)CCOC2)cc1C(=O)Nc1ccc(F)c(F)c1` (stereo not drawn) [Compound 91, N-(3,4-Difluorophenyl)-1-methyl-4-[(3-methyltetrahydrofuran-3-yl)sulfamoyl]-1H-pyrrole-2-carboxamide] returned a CC50 at 4 days in data set [1] greater than 25 µM. Besides, the values for the concentration giving a half-maximal response (EC50) with HBV [2] and in the data set on HBV [3] were 60 nM and 40 nM, respectively.

For `C[C@@H](NS(=O)(=O)c1cc(C(=O)Nc2ccc(F)c(F)c2)n(C)c1)C(F)(F)F` [Compound 92, N-(3,4-Difluorophenyl)-1-methyl-4-{[(1R)-2,2,2-trifluoro-1-methylethyl]-sulfamoyl}-1H-pyrrole-2-carboxamide], in data set [1], the 50% cytotoxic concentration (CC50) at 4 days was greater than 25 µM. Moreover, the EC50 with HBV [2] was determined as 40 nM; with HBV [3], 30 nM.

As for `C[C@H](NS(=O)(=O)c1cc(C(=O)Nc2ccc(F)c(F)c2)n(C)c1)C(F)(F)F` [Compound 93, N-(3,4-Difluorophenyl)-1-methyl-4-{[(1S)-2,2,2-trifluoro-1-methyl-ethyl]sulfamoyl}-1H-pyrrole-2-carboxamide], in data set [1], the half-maximal cytotoxic concentration (CC50) at 4 days was greater than 25 µM. Moreover, the concentration giving a half-maximal response (EC50) with HBV [2] and with HBV [3] was 30 nM in each case.

The compound `Cc1cc(NC(=O)c2c(F)c(S(=O)(=O)NC3(C)COC3)cn2C)ccc1F` [Compound 94, 3-Fluoro-N-(4-fluoro-3-methylphenyl)-1-methyl-4-[(3-methyloxetan-3-yl)sulfamoyl]-1H-pyrrole-2-carboxamide] came in with a 50% cytotoxic concentration (CC50) at 4 days in data set [1] greater than 25 µM. Moreover, the 50% effective concentration (EC50) amounted to 9 nM in the data set with HBV [2] and 10 nM in the data set on HBV [3].

Take `Cn1cc(S(=O)(=O)NC(C)(C)C(F)(F)F)cc1C(=O)Nc1ccc(F)c(F)c1` [Compound 95, N-(3,4-Difluorophenyl)-1-methyl-4-[(2,2,2-trifluoro-1,1-dimethylethyl)-sulfamoyl]-1H-pyrrole-2-carboxamide]: the half-maximal cytotoxic concentration (CC50) at 4 days in data set [1] was greater than 25 µM. Moreover, the EC50 worked out at 130 nM in the data set with HBV [2] and 60 nM with HBV [3].

In data set [1], `Cn1cc(S(=O)(=O)NC(C)(C)C(F)(F)F)cc1C(=O)Nc1cc(F)c(F)c(Cl)c1` [Compound 96, N-(3-Chloro-4,5-difluorophenyl)-1-methyl-4-[(2,2,2-trifluoro-1,1-dimethylethyl)sulfamoyl]-1H-pyrrole-2-carboxamide] returned a half-maximal cytotoxic concentration (CC50) at 4 days of 23.7 µM. The concentration for a half-maximal effect (EC50) was determined as 10 nM in the data set on HBV [2] and 30 nM in the data set with HBV [3].

Consider `Cc1cc(NC(=O)c2cc(S(=O)(=O)N[C@H](C)CS(C)(=O)=O)cn2C)ccc1F` [Compound 97, N-(4-Fluoro-3-methylphenyl)-1-methyl-4-{[(1R)-1-methyl-2-(methyl-sulfonyl)ethyl]sulfamoyl}-1H-pyrrole-2-carboxamide], for which the 50% cytotoxic concentration (CC50) at 4 days in data set [1] was greater than 25 µM. The EC50 with HBV [2] and in the data set with HBV [3] was 30 nM throughout.

For the compound `Cn1cc(S(=O)(=O)NC(C)(C)C)cc1C(=O)Nc1ccc(F)c(OC(F)(F)F)c1` [Compound 98, 4-(tert-Butylsulfamoyl)-N-[4-fluoro-3-(trifluoromethoxy)phenyl]-1-methyl-1H-pyrrole-2-carboxamide], the CC50 at 4 days in data set [1] was greater than 25 µM. Moreover, the concentration giving a half-maximal response (EC50) turned out to be 810 nM with HBV [2] and 540 nM with HBV [3].

Compound `Cc1c(F)ccc(NC(=O)c2cc(S(=O)(=O)NC(C)C)cn2C)c1F` [Compound 99, N-(2,4-Difluoro-3-methylphenyl)-1-methyl-4-[(1-methylethyl)sulfamoyl]-1H-pyrrole-2-carboxamide] had a CC50 at 4 days in data set [1] greater than 25 µM. Further, the EC50 was 130 nM in the data set on HBV [2] and 100 nM with HBV [3].

With `C[C@H](NS(=O)(=O)c1cc(C(=O)Nc2cc(F)c(F)c(Br)c2)n(C)c1)C(F)(F)F` [Compound 100, N-(3-Bromo-4,5-difluorophenyl)-1-methyl-4-{[(1S)-2,2,2-trifluoro-1-methylethyl]sulfamoyl}-1H-pyrrole-2-carboxamide], in data set [1], the CC50 at 4 days came to 12.2 µM. Besides, the results for the 50% effective concentration (EC50) with HBV [2] and in the data set with HBV [3] were 60 nM and 50 nM, respectively.

For orientation: CC50 means the concentration at which the toxic effect on the cells reaches its halfway point. For orientation: EC50 means the concentration needed to bring the measured effect to its halfway point.
